Measurements reported in publication PMC7053825 (European journal of medicinal chemistry, 2020).
pEC50: −log10 of the molar value.

Tests used:
HIV-1 NL4-3 virus = assay: In vitro anti-HIV assay in TZM-bl cells; assay type: cell-based
[1] = system: NL4-3 Env pseudo-typed HIV-I virus; assay: ELISA-based quantification of capsid; assay type: cell-based, HIV-1; settings: 10 μM compound, compared to the DMSO control
[2] = Human plasma stability assay; assay type: in vitro ADME
[3] = biological target: HIV-1NL4-3 capsid protein (CA hexamer); assay: SPR binding to CA hexamer; settings: hexamer versus monomer
in vitro = settings: human, microsomes
HIV-1 CA = HIV-1 CA (Human immunodeficiency virus type 1 group M subtype B, UniProt P12493); assay: In vitro capsid assembly assay; assay type: biochemical; settings: capsid 30 μM, compound 50 μM, 3M NaCl, compared to DMSO control

COc1ccc(N(C)C(=O)[C@H](Cc2ccccc2)NC(=O)Cn2cc(-c3ccccc3NC(=O)c3ccccc3OC)nn2)cc1 [6a-4, (S)-2-methoxy-N-(2-(1-(2-((1-((4-methoxyphenyl)(methyl)amino)-1-oxo-3-phenylpropan-2-yl)amino)-2-oxoethyl)-1H-1,2,3-triazol-4-yl)phenyl)benzamide]
fold decrease in antiviral activity (HIV-1 NL4-3 virus; EC50 relative to 6a-2): 2.2 fold

COc1ccc(N(C)C(=O)[C@H](Cc2ccccc2)NC(=O)Cn2cc(-c3ccccc3NC(=O)c3cccc(OC)c3)nn2)cc1 [6a-5, (S)-3-methoxy-N-(2-(1-(2-((1-((4-methoxyphenyl)(methyl)amino)-1-oxo-3-phenylpropan-2-yl)amino)-2-oxoethyl)-1H-1,2,3-triazol-4-yl)phenyl)benzamide]
fold decrease in antiviral activity (HIV-1 NL4-3 virus; EC50 relative to 6a-2): 3.4 fold

COc1ccc(C(=O)Nc2ccccc2-c2cn(CC(=O)N[C@@H](Cc3ccccc3)C(=O)N(C)c3ccc(OC)cc3)nn2)cc1 [6a-6, (S)-4-methoxy-N-(2-(1-(2-((1-((4-methoxyphenyl)(methyl)amino)-1-oxo-3-phenylpropan-2-yl)amino)-2-oxoethyl)-1H-1,2,3-triazol-4-yl)phenyl)benzamide]
pEC50 (HIV-1 NL4-3 virus; Human immunodeficiency virus 1, NL43, TZM-bl): < 4.79

COc1ccc(N(C)C(=O)[C@H](Cc2ccccc2)NC(=O)Cn2cc(-c3ccccc3NC(=O)c3ccccc3F)nn2)cc1 [6a-9, (S)-2-fluoro-N-(2-(1-(2-((1-((4-methoxyphenyl)(methyl)amino)-1-oxo-3-phenylpropan-2-yl)amino)-2-oxoethyl)-1H-1,2,3-triazol-4-yl)phenyl)benzamide]
reduction of p24 of the produced virus [1]: about 15%
remaining at 0 h [2]: 100%
difference in KD values for hexameric and monomeric CA [3]: no significant differences
CLint scaled at 1 h (in vitro): 1400 mL/min/kg

COc1ccc(N(C)C(=O)[C@H](Cc2ccccc2)NC(=O)Cn2cc(-c3ccccc3NC(=O)c3cccc(F)c3)nn2)cc1 [6a-10, (S)-3-fluoro-N-(2-(1-(2-((1-((4-methoxyphenyl)(methyl)amino)-1-oxo-3-phenylpropan-2-yl)amino)-2-oxoethyl)-1H-1,2,3-triazol-4-yl)phenyl)benzamide]
difference in KD values for hexameric and monomeric CA [3]: no significant differences

COc1ccc(N(C)C(=O)[C@H](Cc2ccccc2)NC(=O)Cn2cc(-c3cccc(NC(C)=O)c3)nn2)cc1 [6b-1, (S)-2-(2-(4-(3-acetamidophenyl)-1H-1,2,3-triazol-1-yl)acetamido)-N-(4-methoxyphenyl)-N-methyl-3-phenylpropanamide]
fold decrease in antiviral activity (HIV-1 NL4-3 virus; EC50 relative to 5b): 4.5 fold

COc1ccc(N(C)C(=O)[C@H](Cc2ccccc2)NC(=O)Cn2cc(-c3cccc(NC(=O)c4ccccc4)c3)nn2)cc1 [6b-2, (S)-N-(3-(1-(2-((1-((4-methoxyphenyl)(methyl)amino)-1-oxo-3-phenylpropan-2-yl)amino)-2-oxoethyl)-1H-1,2,3-triazol-4-yl)phenyl)benzamide]
fold decrease in antiviral activity (HIV-1 NL4-3 virus; EC50 relative to 5b): 3.9 fold

COc1ccc(N(C)C(=O)[C@H](Cc2ccccc2)NC(=O)Cn2cc(-c3cccc(NC(=O)c4cccc(F)c4)c3)nn2)cc1 [6b-10, (S)-3-fluoro-N-(3-(1-(2-((1-((4-methoxyphenyl)(methyl)amino)-1-oxo-3-phenylpropan-2-yl)amino)-2-oxoethyl)-1H-1,2,3-triazol-4-yl)phenyl)benzamide]
fold better active (HIV-1 NL4-3 virus; EC50 with respect to 6b-2): 1.3 fold

Cc1[nH]c2ccccc2c1CC(=O)N[C@@H](Cc1ccccc1)C(=O)N(C)c1ccccc1 [PF-74]
effect on in vitro assembly of HIV-1 CA (HIV-1 CA): accelerated the assembly of HIV-1 CA
CLint scaled at 1 h (in vitro): 2160 mL/min/kg

CC(C)[N+](C)(CCOC(=O)C1c2ccccc2Oc2ccccc21)C(C)C [Propantheline bromide, reference compound]
remaining at 0 h [2]: 100%

C[C@]12CC[C@H]3[C@@H](CCC4=CC(=O)CC[C@@]43C)[C@@H]1CC[C@@H]2O [Testosterone]
Remaining (T=60min) (HLM 0.5 mg protein/mL): 3.6%
Remaining (NCF=60min) (HLM, no cofactor (no NADPH regenerating system)): 74.4%
CLint scaled at 1 h (in vitro): 169 mL/min/kg
